The CheMixHub viscosity set

Test: xn = mol fraction of the nth substance listed

CCCC(C)=O + C1CCCCC1
viscosity [mPa·s]
Details | 293.15 K | 298.15 K | 303.15 K
101.32 kPa, x2 = 0.1524 | – | – | 0.474
101.32 kPa, x2 = 0.2942 | – | – | 0.496
101.32 kPa, x2 = 0.3752 | – | – | 0.507
101.32 kPa, x2 = 0.4326 | – | – | 0.517
101.32 kPa, x2 = 0.5075 | – | – | 0.532
101.32 kPa, x2 = 0.5951 | – | – | 0.555
101.32 kPa, x2 = 0.7377 | – | – | 0.607
101.32 kPa, x2 = 0.8891 | – | – | 0.695
101.33 kPa, x2 = 0.0483 | 0.5 | 0.473 | 0.447
101.33 kPa, x2 = 0.0981 | 0.506 | 0.477 | 0.452
101.33 kPa, x2 = 0.1932 | 0.516 | 0.486 | 0.458
101.33 kPa, x2 = 0.296 | 0.537 | 0.504 | 0.476
101.33 kPa, x2 = 0.3957 | 0.562 | 0.528 | 0.498
101.33 kPa, x2 = 0.4987 | 0.594 | 0.554 | 0.52
101.33 kPa, x2 = 0.5982 | 0.625 | 0.591 | 0.548
101.33 kPa, x2 = 0.7002 | 0.68 | 0.632 | 0.594
101.33 kPa, x2 = 0.8051 | 0.748 | 0.694 | 0.645
101.33 kPa, x2 = 0.9024 | 0.847 | 0.781 | 0.724
101.33 kPa, x2 = 0.9503 | 0.898 | 0.826 | 0.762

ClC(Cl)(Cl)Cl + CCCCCC
298.15 K, 101 kPa
Details | viscosity [mPa·s]
x1 = 0.1 | 0.3171
x1 = 0.1729 | 0.3422
x1 = 0.2 | 0.3432
x1 = 0.3 | 0.3743
x1 = 0.3869 | 0.4102
x1 = 0.4 | 0.4105
x1 = 0.5 | 0.4532
x1 = 0.5869 | 0.5067
x1 = 0.6 | 0.5052
x1 = 0.7 | 0.5705
x1 = 0.7906 | 0.6461
x1 = 0.8 | 0.6544
x1 = 0.9 | 0.7635

COc1ccc(C)cc1 + CCCCCOC(C)=O
Details | viscosity [mPa·s]
298.15 K, 101 kPa, x1 = 0.5 | 0.8602

ClC(Cl)(Cl)Cl + O=C1CCCCC1
298.15 K, 101 kPa
Details | viscosity [mPa·s]
x2 = 0.0951 | 1.017
x2 = 0.2086 | 1.109
x2 = 0.3074 | 1.193
x2 = 0.4109 | 1.289
x2 = 0.5072 | 1.381
x2 = 0.6004 | 1.476
x2 = 0.7013 | 1.577
x2 = 0.8072 | 1.669
x2 = 0.9023 | 1.754

[Br-].[Li+] + CN1CCCC1=O
298.15 K, 101 kPa
Details | viscosity [mPa·s]
x1 = 0.02596 | 2.385
x1 = 0.02626 | 2.359
x1 = 0.02735 | 2.37
x1 = 0.05088 | 3.13
x1 = 0.05114 | 3.124
x1 = 0.05202 | 3.192
x1 = 0.07505 | 4.349
x1 = 0.07536 | 4.344
x1 = 0.07626 | 4.329

ClC(Cl)(Cl)Cl + CCCCCCO
viscosity [mPa·s], 101 kPa
Details | 298.15 K | 308.15 K | 318.15 K
x2 = 0.0092 | 0.909 | 0.786 | 0.691
x2 = 0.0374 | 0.941 | 0.817 | 0.71
x2 = 0.07 | 0.961 | – | –
x2 = 0.0912 | 1 | 0.865 | 0.745
x2 = 0.14 | 1.058 | – | –
x2 = 0.1545 | 1.11 | 0.938 | 0.806
x2 = 0.2095 | 1.197 | 1.008 | 0.861
x2 = 0.21 | 1.167 | – | –
x2 = 0.27 | 1.299 | – | –
x2 = 0.293 | 1.368 | 1.127 | 0.942
x2 = 0.3554 | 1.533 | 1.255 | 1.046
x2 = 0.496 | 1.965 | 1.564 | 1.273
x2 = 0.5 | 1.931 | – | –
x2 = 0.6 | 2.317 | – | –
x2 = 0.6252 | 2.531 | 1.957 | 1.548
x2 = 0.69 | 2.737 | – | –
x2 = 0.7459 | 3.091 | 2.344 | 1.814
x2 = 0.86 | 3.57 | – | –
x2 = 0.8652 | 3.83 | 2.863 | 2.202

ClC(Cl)(Cl)Cl + ClCCCl
303.15 K, 101.3 kPa
Details | viscosity [mPa·s]
x2 = 0.1081 | 0.7755
x2 = 0.1414 | 0.7609
x2 = 0.1994 | 0.739
x2 = 0.3171 | 0.7081
x2 = 0.3777 | 0.6975
x2 = 0.5001 | 0.6832
x2 = 0.5454 | 0.6817
x2 = 0.5978 | 0.6814
x2 = 0.6503 | 0.6809
x2 = 0.6758 | 0.6824
x2 = 0.7592 | 0.6879
x2 = 0.8193 | 0.6942
x2 = 0.8711 | 0.7016
x2 = 0.8965 | 0.7055
x2 = 0.934 | 0.7126

ClC(Cl)(Cl)Cl + CCOC(C)=O
101.3 kPa
Details | viscosity [mPa·s]
298 K, x1 = 0.1581 | 0.517
298 K, x1 = 0.3048 | 0.57
298 K, x1 = 0.501 | 0.644
298 K, x1 = 0.6498 | 0.713
298 K, x1 = 0.8438 | 0.808
303.15 K, x2 = 0.1014 | 0.758
303.15 K, x2 = 0.1972 | 0.6991
303.15 K, x2 = 0.2976 | 0.6483
303.15 K, x2 = 0.394 | 0.6016
303.15 K, x2 = 0.4966 | 0.5603
303.15 K, x2 = 0.5986 | 0.5236
303.15 K, x2 = 0.6989 | 0.4883
303.15 K, x2 = 0.802 | 0.4572
303.15 K, x2 = 0.898 | 0.4289
318 K, x1 = 0.1518 | 0.4229
318 K, x1 = 0.3052 | 0.4655
318 K, x1 = 0.5035 | 0.5279
318 K, x1 = 0.6517 | 0.5797
318 K, x1 = 0.854 | 0.6674

NCC(=O)N[C@@H](CCC(N)=O)C(=O)O + O
298.15 K, 101 kPa
Details | viscosity [mPa·s]
x1 = 0.001798 | 0.937
x1 = 0.002695 | 0.96

ClC(Cl)(Cl)Cl + CCCCCCCO
viscosity [mPa·s], 101 kPa
Details | 298.15 K | 308.15 K | 318.15 K
x2 = 0.0559 | 0.969 | 0.832 | 0.725
x2 = 0.07 | 0.982 | – | –
x2 = 0.13 | 1.102 | – | –
x2 = 0.147 | 1.151 | 1.004 | 0.867
x2 = 0.19 | 1.237 | – | –
x2 = 0.25 | 1.402 | – | –
x2 = 0.2529 | 1.453 | 1.227 | 1.052
x2 = 0.3189 | – | 1.321 | 1.096
x2 = 0.3828 | 1.836 | 1.489 | 1.231
x2 = 0.47 | 2.175 | – | –
x2 = 0.57 | 2.716 | – | –
x2 = 0.6371 | 3.08 | 2.329 | 1.851
x2 = 0.67 | 3.302 | – | –
x2 = 0.7713 | 3.949 | 2.943 | 2.256
x2 = 0.816 | 4.238 | 3.167 | 2.422
x2 = 0.84 | 4.527 | – | –
